Like-named read-outs stand apart in the source and are kept apart here.
Tests used:
ACLY [1] = target: T1, ACLY (Homo sapiens (Human), UniProt P53396); assay: Human ACLY (hACLY) RF/MS activity assay; type: biochemical; settings: 1 nM hACLY; 30 min pre-incubation; 15 μM Coenzyme A, 50 μM ATP, 50 μM citrate; CoA to Acetyl-CoA by RF/MS; read-out: RFMS IC50 GMean
Summary of the method: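 RapidFire MS read CoA-to-acetyl-CoA conversion as a substrate/product ratio after 30 min at RT (20° C) with final 15 μM CoA, 50 μM ATP, 50 μM citrate. Before substrate addition, 1 nM enzyme sat 30 min with compound (top 10 μM, two-fold dilutions; 1% DMSO) in pH 8.0 Hepes/MgCl2/NaCl/DTT buffer.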

[2] = target: Recombinant human ACLY full length protein (Homo sapiens (Human), UniProt P53396); assay: hACLY ADP-Glo activity assay; type: biochemical; settings: 0.5 nM ACLY; 15 μM sodium citrate, 1 μM coenzyme A, 80 μM ATP; ADP formed, luminescence; read-out: ADP-Glo IC50 GMean
Recombinant human ACLY full length protein, sequence (P53396 whole entry): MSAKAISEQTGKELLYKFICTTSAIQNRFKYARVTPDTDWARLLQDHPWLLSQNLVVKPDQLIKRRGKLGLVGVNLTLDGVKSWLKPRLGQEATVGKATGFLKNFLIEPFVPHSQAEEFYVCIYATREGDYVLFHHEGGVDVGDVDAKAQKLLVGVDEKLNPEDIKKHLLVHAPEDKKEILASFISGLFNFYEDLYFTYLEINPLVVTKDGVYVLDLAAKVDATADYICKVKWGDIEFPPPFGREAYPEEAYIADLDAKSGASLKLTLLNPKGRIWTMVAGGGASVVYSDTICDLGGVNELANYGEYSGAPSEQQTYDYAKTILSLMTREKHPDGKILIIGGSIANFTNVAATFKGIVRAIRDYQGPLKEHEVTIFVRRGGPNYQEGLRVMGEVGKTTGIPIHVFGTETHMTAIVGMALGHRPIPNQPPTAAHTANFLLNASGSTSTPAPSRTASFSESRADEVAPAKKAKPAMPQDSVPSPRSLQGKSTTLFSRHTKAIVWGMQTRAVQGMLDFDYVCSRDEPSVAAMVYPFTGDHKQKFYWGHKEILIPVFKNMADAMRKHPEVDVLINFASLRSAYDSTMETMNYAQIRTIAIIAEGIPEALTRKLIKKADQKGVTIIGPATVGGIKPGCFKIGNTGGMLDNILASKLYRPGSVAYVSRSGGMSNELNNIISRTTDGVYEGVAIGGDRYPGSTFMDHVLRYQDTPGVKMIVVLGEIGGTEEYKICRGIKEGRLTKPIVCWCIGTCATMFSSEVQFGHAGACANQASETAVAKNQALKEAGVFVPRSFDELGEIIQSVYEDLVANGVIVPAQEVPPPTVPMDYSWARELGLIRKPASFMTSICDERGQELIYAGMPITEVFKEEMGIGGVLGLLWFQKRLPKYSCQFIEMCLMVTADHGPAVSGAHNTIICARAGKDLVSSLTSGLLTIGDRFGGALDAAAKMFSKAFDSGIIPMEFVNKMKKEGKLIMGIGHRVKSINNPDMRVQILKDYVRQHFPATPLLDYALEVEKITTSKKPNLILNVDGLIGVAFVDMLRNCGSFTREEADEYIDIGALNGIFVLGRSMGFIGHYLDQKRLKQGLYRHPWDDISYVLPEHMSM
Procedure: Compounds of the disclosure were evaluated for their efficacy in inhibiting hACLY using an ADP-Glo™ assays that measure ADP formed from the enzymatic activity of hACLY.
Test compounds were 3-fold serially diluted in DMSO over 11-point concentration range and dispensed onto a 384-well plate. Recombinant human ACLY full length protein was purified. Concentrations of ACLY protein, sodium citrate, coenzyme A, and ATP in the reaction were optimized for standardized homogenous enzyme assay using ADP-Glo™ Kinase (Promega Inc.). The assay measured ADP formed from the enzymatic reaction.
The reaction buffer consisted of the assay buffer (50 mM HEPES pH 8.0, 10 mM MgCl2, 4 mM 1,4-Dithiothreitol, 0.01% Brij® 35).
ACLY protein (0.5 nM) was added to the prepared reaction buffer, and the mixture was dispensed into the assay plate and incubated for 30 minutes at room temperature. Next, 15 μM sodium citrate, 1 μM coenzyme A, and 80 μM ATP were added into the assay plate and incubated for 60 minutes at room temperature. The final reaction volume for each well was 5 μL.
5 μL of ADP-Glo™ reagent was added, and the mixture was incubated for 40 minutes at room temperature. 10 μl ADP-Glo™ detection reagent was added, and the mixture was incubated for 30 minutes at room temperature. Luminescence was determined using EnVision microplate reader with ultra-luminescence module (Perkin Elmer Inc). Concentration-response curve-fitting and IC50 determination was performed using Xlfit Software (version 5.5.0) with a four-parameter logistic regression fit model.

HepG2 cells = assay: Fatty acid synthesis (FAS) assay in HepG2 cells; type: cell-based; settings: Homo sapiens, 1.5 h, 14C-citrate 50 μM, 90 min, read-out: FAS IC50 GMean
Procedure: HepG2 cells were seeded into white clear-bottom 96-well plates (50,000/well) coated with collagen and incubated at 37° C. for 16-24 hours. Thereafter the plates were washed once with 100 μL PBS (+CaCl2+MgCl2) and 50 μL assay medium ([…] containing 11 mM glucose, 10 mM HEPES and 1 nM Insulin) per well was added. Test substances in assay medium were added (10 μL, 0.5% DMSO) and incubated for 20 min at 37° C. After that 10 μL assay medium containing ^14C-citrate (final concentration 50 μM) and PrestoBlue reagent (lx final concentration; ThermoFisher) were added and incubated for 90 min (37° C., 5% CO2). Cell viability was measured (Multiskan FC, microplate reader, absorbance 570 nm). Medium was removed by inverting the plate and cells were washed once with 100 μL ice-cold PBS. Cells were lysed with 50 μL lysis buffer (0.1 N NaOH, 0.1% Triton X-100) and plate was sealed with Tape Pads and vortexed. For the saponification reaction plates were incubated for 16-24 hours at 80° C. Seals were removed and 200 μL 0.1 N HCl was added for neutralisation of the pH. 150 μL from each well was transferred into the corresponding wells of a 96-well Flash plate (Perkin Elmer) and sealed with TopSeal A (Perkin Elmer). Plates were incubated for 4 h at 70° C., and for 1 h at room temperature in the dark. Signal of ^14C radioactivity was measured (TopCount). As a positive control 5 mM unlabelled citrate or C75 (Sigma, C5490) was applied.

ACLY [3] = target: T1, ACLY; assay: InCell Pulse assay (permeate HEK293 cells, bind to and stabilize ACLY); type: cell-based; settings: HEK293 cells transfected with pICP-ACLY(FL)-ePL; 1 hour at 37° C., 55° C. heat pulse 10 minutes; read-out: InCell Pulse IC50 GMean
Summary of the method: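 HEK293 cells transiently expressing full-length ACLY-ePL were exposed in OptiMEM to 11-point, 3-fold compound dilutions for 1 h at 37 °C, heat-pulsed 10 min at 55 °C, then lysed for enzyme-fragment complementation luminescence. Four-parameter fit, normalised to 0.5% DMSO and 1 μM NDI-094311.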

T1 sequence (P53396 whole entry): as above

Compound | IC50 (ACLY [1]) | IC50 [2] | IC50 (ACLY [3]) | also measured
COc1c(Cl)cc2cc1S(=O)(=O)Nc1cc(c(F)cc1F)-c1ccccc1N1CC(COC2=O)C1 | – | – | – | ring closure, isolated yield (from 3-chloro-5-[[2,4-difluoro-5-[2-[3-(hydroxymethyl)229azetidine-1-yl]phenyl]phenyl]sulfamoyl]-4-methoxybenzoic acid, ester bond, 16-membered ring, DCC/DMAP, DCM, 25.0 mM): 60%
C[C@H]1COc2ccccc2-c2cc(c(F)cc2F)NS(=O)(=O)c2cc(cc(Cl)c2O)C(=O)N1 [Compound 17, (10S)-15-chloro-21,23-difluoro-16-hydroxy-10-methyl-8-oxa-18lambda6-thia-11,19-diazatetracyclo[18.3.1.1^13,17.0^2,7]pentacosa-1(24),2,4,6,13,15,17(25),20,22-nonaene-12,18,18-trione] | 100 to 10000 nM | 10 to 1000 nM | ≥ 50000 nM | IC50 (HepG2 cells): ≥ 50000 nM
O=C1OCCOc2cc(Cl)ccc2-c2cc(c(F)cc2F)NS(=O)(=O)c2cc1cc(Cl)c2O [Compound 18, 5,15-dichloro-21,23-difluoro-16-hydroxy-8,11-dioxa-18lambda6-thia-19-azatetracyclo[18.3.1.1^13,17.0^2,7]pentacosa-1(24),2,4,6,13,15,17(25),20,22-nonaene-12,18,18-trione] | 20 to 100 nM | 1 to 10 nM | 300 to 1000 nM | IC50 (HepG2 cells): 2000 to 10000 nM
COc1c(Cl)cc2cc1S(=O)(=O)Nc1cc(c(F)cc1F)Oc1cccc(c1)COC2=O | – | – | – | ring closure, isolated yield (from COc1c(Cl)cc(C(=O)O)cc1S(=O)(=O)Nc1cc(Oc2cccc(CO)c2)c(F)cc1F, ester bond, 15-membered ring, DCC/DMAP, DCM, 19.8 mM, 3.0 h): 72%
O=C1NCCCOc2cccc(c2)-c2cc(c(F)cc2F)NS(=O)(=O)c2cc1cc(Cl)c2O [Compound 5, 11-chloro-3,5-difluoro-10-hydroxy-19-oxa-8lambda6-thia-7,15-diazatetracyclo[18.3.1.1^2,6.1^9,13]hexacosa-1(23),2(26),3,5,9(25),10,12,20(24),21-nonaene-8,8,14-trione] | 100 to 10000 nM | 10 to 1000 nM | ≥ 50000 nM | –
COc1c(Cl)cc2cc1S(=O)(=O)Nc1cc(ccc1F)-c1ccccc1CCOC2 | – | – | – | ring closure, isolated yield (from COc1c(Cl)cc(CBr)cc1S(=O)(=O)Nc1cc(-c2ccccc2CCO)ccc1F, ether bond, 14-membered ring, NaH, THF, 12.7 mM, 50.0 °C, 2.5 h): 78%
O=C1OCCOc2ccccc2-c2cc(c(F)cc2F)NS(=O)(=O)c2cc1cc(Cl)c2C(F)F | – | – | – | ring closure, isolated yield (from O=C(O)c1cc(Cl)c(C(F)F)c(S(=O)(=O)Nc2cc(-c3ccccc3OCCO)c(F)cc2F)c1, ester bond, 15-membered ring, DCC/DMAP, DCM, 33.0 mM, 25.0 °C, 1.5 h): 53%
COc1c(Cl)cc2cc1S(=O)(=O)Nc1cc(c(F)cc1F)-c1cccc3c1OC(COC2=O)C3 (stereo not shown) | – | – | – | ring closure, isolated yield (from COc1c(Cl)cc(C(=O)O)cc1S(=O)(=O)Nc1cc(-c2cccc3c2OC(CO)C3)c(F)cc1F, ester bond, 15-membered ring, DCC/DMAP, DCM, 29.5 mM, 25.0 °C, 2.0 h): 70%
O=C1NCCCOc2ccccc2-c2cc(c(F)cc2F)NS(=O)(=O)c2cc1cc(Cl)c2O [Compound 6, 16-chloro-22,24-difluoro-17-hydroxy-8-oxa-19lambda6-thia-12,20-diazatetracyclo[19.3.1.1^14,18.0^2,7]hexacosa-1(25),2,4,6,14,16,18(26),21,23-nonaene-13,19,19-trione] | 100 to 10000 nM | 10 to 1000 nM | ≥ 50000 nM | IC50 (HepG2 cells): 10000 to 50000 nM
CN1CCCc2ccccc2-c2cc(c(F)cc2F)NS(=O)(=O)c2cc(cc(Cl)c2O)C1=O [Compound 10, 15-chloro-21,23-difluoro-16-hydroxy-11-methyl-18lambda6-thia-11,19-diazatetracyclo[18.3.1.1^13,17.0^2,7]pentacosa-1(24),2,4,6,13,15,17(25),20,22-nonaene-12,18,18-trione] | 20 to 100 nM | 1 to 10 nM | < 300 nM | IC50 (HepG2 cells): 2000 to 10000 nM
O=C1OCCOc2ccccc2-c2cc(c(F)cc2F)NS(=O)(=O)c2cc1cc(Cl)c2O [Compound 7, 15-chloro-21,23-difluoro-16-hydroxy-8,11-dioxa-18lambda6-thia-19-azatetracyclo[18.3.1.1^13,170^2,7]pentacosa-1(24),2,4,6,13,15,17(25),20,22-nonaene-12,18,18-trione] | – | – | – | IC50 (HepG2 cells): < 2000 nM
COc1c(Cl)cc2cc1S(=O)(=O)Nc1cc(c(F)cc1F)-c1ccccc1C(C)CCOC2=O (stereo not shown) | – | – | – | ring closure, isolated yield (from COc1c(Cl)cc(C(=O)O)cc1S(=O)(=O)Nc1cc(-c2ccccc2C(C)CCO)c(F)cc1F, ester bond, 15-membered ring, DCC/DMAP, DCM, 19.8 mM, 25.0 °C, 2.0 h): 72%
COc1c(Cl)cc2cc1S(=O)(=O)Nc1cc(ccc1C(F)(F)F)-c1ccccc1OCCOC2=O | – | – | – | ring closure, isolated yield (from COc1c(Cl)cc(C(=O)O)cc1S(=O)(=O)Nc1cc(-c2ccccc2OCCO)ccc1C(F)(F)F, ester bond, 15-membered ring, DCC/DMAP, DCM, 16.8 mM, 25.0 °C, 1.0 h): 42%
COc1c(Cl)cc2cc1S(=O)(=O)Nc1cc(c(F)cc1F)-c1ccccc1COC(=O)C2 | – | – | – | ring closure, isolated yield (from COc1c(Cl)cc(CC(=O)O)cc1S(=O)(=O)Nc1cc(-c2ccccc2CO)c(F)cc1F, ester bond, 14-membered ring, DCC/DMAP, DCM, 12.7 mM, 3.0 h): 19%
COc1c(Cl)cc2cc1S(=O)(=O)Nc1cc(c(F)cc1F)-c1ccccc1COC2=O | – | – | – | ring closure, isolated yield (from COc1c(Cl)cc(C(=O)O)cc1S(=O)(=O)Nc1cc(-c2ccccc2CO)c(F)cc1F, ester bond, 13-membered ring, DCC/DMAP, DCM, 21.8 mM, 26.5 h): 43%
COc1c(Cl)cc2cc1S(=O)(=O)Nc1cc(c(F)cc1F)-c1ccccc1OCCNC2=O [Compound 1, 15-chloro-21,23-difluoro-16-methoxy-8-oxa-18lambda6-thia-11,19-diazatetracyclo[18.3.1.1^13,17.0^2,7]pentacosa-1(24),2,4,6,13,15,17(25),20,22-nonaene-12,18,18-trione] | – | ≥ 1000 nM | – | ring closure, isolated yield (amide bond, 15-membered ring, T3P/DIPEA, EtOAc/DMF, 4.9 mM): 72%
COc1c(Cl)cc2cc1S(=O)(=O)Nc1cc(ccc1F)-c1ccccc1CCCOC2 | – | – | – | ring closure, isolated yield (from COc1c(Cl)cc(CBr)cc1S(=O)(=O)Nc1cc(-c2ccccc2CCCO)ccc1F, ether bond, 15-membered ring, NaH, THF, 13.0 mM, 50.0 °C, 2.0 h): 46%
COc1ccc2cc1C(=O)N1CCc3cc(F)c(cc31)-c1ccccc1OCCNC2=O | – | – | – | ring closure, isolated yield (from 3-[6-[2-(2-aminoethoxy)phenyl]-5-fluoro-indoline-1-carbonyl]-4-methoxybenzoic acid·HCl, amide bond, 15-membered ring, T3P/DIPEA, DMF, 11.6 mM): 24%
O=C1OCCCOc2ccccc2-c2cc(c(F)cc2F)NS(=O)(=O)c2cc1cc(Cl)c2O [Compound 20, 16-chloro-22,24-difluoro-17-hydroxy-8,12-dioxa-19lambda6-thia-20-azatetracyclo[19.3.1.1^14,18.0^2,7]hexacosa-1(25),2,4,6,14,16,18(26),21,23-nonaene-13,19,19-trione] | < 20 nM | < 1 nM | 300 to 1000 nM | –
COc1c(Cl)cc2cc1S(=O)(=O)Nc1cc(ccc1F)N1CCC[C@@H]1CCOC2=O | – | – | – | ring closure, isolated yield (from 3-chloro-5-[[2-fluoro-5-[(2R)-2-(2-hydroxyethyl)221pyrrolidine-1-yl]phenyl]sulfamoyl]-4-methoxybenzoic acid, ester bond, 14-membered ring, DCC/DMAP, DCM, 26.0 mM): 77%

Reference: patent US20250289793A1, “MACROCYCLIC INHIBITORS OF ATP CITRATE LYASE” (Esperion Therapeutics, Inc., priority 2022, published 2025)
